Results on one compound are retold here after paper PMC5915149, “The role of oxidative stress in activity of anticancer thiosemicarbazones” (Oncotarget, 2018).

What is called IC50 is the point on the concentration scale where inhibition reaches its midpoint.

Read-outs that look alike come from different tables or passages of the source.

The test system of one test is MnSOD. Put plainly: mRNA expression (Real-Time PCR) of MnSOD. It counts as cell-based, human. Conditions: HCT116, TSC 1 µM, 12 or 24 h. The method, then:
(§1) The HCT116 cells were seeded in 3 cm Petri dishes (Nunc) at a density of 0.5·10^6 cells/well and incubated overnight. Next, the medium was removed and solutions of TSC (1 μM) and DOX (5 μM) were added. After 12 or 24 h, total RNA was isolated from the cells using TRIzol Reagent (Ambion) according to the manufacturer’s instructions. cDNA synthesis was performed with 5 μg of total RNA using a GoScript™ Reverse Transcriptase kit (Promega) and Oligo(dT)23 Primers (Sigma). The Real-Time PCR was performed with a CTX96 Touch™ Real-Time PCR Detection System (Biorad) in a 20 μL reaction volume. The reaction consisted of PowerUp™ SYBR® Green Master Mix (Applied Biosystems), a primer pair mix (0.5 μM each) and 1 μL of cDNA. All primer pair sequences were purchased from Sigma-Aldrich and are listed in Supplementary Table 2. The experiment was performed under the following conditions: initial denaturation at 95° C for 120 sec; followed by 40 denaturation cycles at 95° C, 15 sec; annealing (primer-specific temperature for 30 sec) and extension at 72° C for 60 sec. Data was analyzed based on a comparison of the expression of the target genes to a reference gene – β-actin, using the 2^–ΔΔCT method. The experiments were performed at least three times.
For orientation: Quantitative PCR measures a nucleic acid by following its amplification.

Test [1] deals with HCT116. Kind of test: MTS antiproliferative assay, HCT116 (with or without added metal ions). It counts as cell-based, human. The note with it: 96 h. The method, then:
(§2) The cells were seeded in 96-well plates (Nunc) at a density of 3,500 cells/well (HCT116 and MCF-7) and 3,000 cells/well (NHDF) and incubated at 37° C for 24 h. The assay was performed following a 96 h incubation with varying concentrations of the compounds that were being tested. Then, 20 µL of CellTiter 96® AQueous One Solution-MTS (Promega) was added to each well (with 100 µL DMEM without phenol red) and incubated for 1 h at 37° C. The optical densities of the samples were analyzed at 490 nm using a multi-plate reader (Synergy 4, Bio Tek). Results were expressed as a percentage of the control and calculated as the inhibitory concentration (IC50) values (using GraphPad Prism 5). The IC50 parameter was defined as the compound concentration that was necessary to reduce the proliferation of cells to 50% of the untreated control. Each individual compound was tested in triplicate in a single experiment with each experiment being repeated three or four times.
(§3) The HCT116 and MCF-7 cells were seeded in 96-well plates (Nunc) at a density of 3,500 cells/well and incubated at 37° C for 24 h. The MTS assay was performed following a 96 h incubation with varying concentrations of the tested compounds. Additionally, a 20 µM solution of CuSO4, FeSO4 or FeCl3 was added into wells with the tested compounds. The results were expressed as a percentage of the control and calculated as the inhibitory concentration (IC50) values using GraphPad Prism 5. Each individual compound was tested in triplicate in a single experiment with each experiment being repeated three times.
(In general: Tetrazolium dyes change colour on reduction, which living cells bring about.)

For a further test, the system named is cdc2. Put plainly: Western blot of cdc2. It counts as cell-based, human. Conditions: HCT116, 1 µM. The method, then: (§4) The HCT116 cells were seeded in 3 cm Petri dishes (Nunc) at a density of 0.5·10^6 cells/well and incubated overnight. The next day, solutions of TSC (1 μM) and DOX (5 μM) were added and the cells incubated for 24 or 48 h. Cells were harvested by trypsinization and washed with cold PBS. Next, the cells were centrifuged and suspended in an RIPA buffer (Thermo Scientific) containing Halt Protease Inhibitor Cocktail (Thermo Scientific), Halt Phosphatase Inhibitor Cocktail (Thermo Scientific) along with 0.5 M EDTA and lysed for 20 min on ice. Then, the lysates were sonicated, centrifuged at 10,000 rpm for 10 min at 4° C and the supernatants were collected for further analysis. The protein concentration was determined using a Micro BCA™ Protein Assay Kit (Thermo Scientific) according to the manufacturer’s instructions. Equal amounts of the proteins (20 μg) were electrophoresed on SDS-Page gels and transferred onto a nitrocellulose membranes. The membranes were blocked in 5% non-fat milk prepared in PBS containing 0.1% Tween-20 (TPBS) for 1 h. After blocking, the membranes were incubated with specific primary antibodies: cdc2 (#POH1, Cell Signaling), p21^Waf1/Cip1 (#12D1, Cell Signaling), p53 (#1C12, Cell Signaling) and β-Actin (#8H10D10, Cell Signaling) overnight at 4° C, then washed and incubated with horseradish peroxidase (HRP)-conjugated secondary antibodies for 1h at room temperature. All of antibodies were diluted 1:1000 in 5% milk in TPBS. Finally, the membranes were washed and incubated with a SuperSignal™ West Pico Chemiluminescent Substrate (Thermo Scientific). The chemiluminescence signals were captured using a ChemiDoc™ XRS+ System (BioRad). The experiments were performed at least three times. Densitometric analysis was performed using ImageJ 1.41 software (Wayne Rasband, National Institutes of Health, USA).
(In general: Immunoblotting shows a protein as a band on a membrane.)

For the next test, the system named is Ndrg1. Kind of test: mRNA expression (Real-Time PCR) of Ndrg1. The note with it: HCT116, TSC 1 µM, 24 h. It counts as cell-based, human. The method, then: as §1
The test system of a further test is p21. Kind of test: Western blot of p21. It counts as cell-based, human. The note with it: HCT116, 1 µM. The method, then:
as §4

For test [2], the system named is HCT116. Also on record: method as in PMID 25329549. Conditions: 96 h incubation, MTS; cited from earlier work.
In the next test the test system is MCF-7. Kind of test: MTS antiproliferative assay, MCF-7 (with or without added metal ions). It counts as cell-based, human. The method, then: as §2, §3
The next test concerns NHDF. Also on record: method as in PMID 25329549. Conditions: 96 h incubation, MTS; cited from earlier work.
In the next test the test system is calf-thymus DNA (CT-DNA). Put plainly: Intercalation, absorption spectra with CT-DNA. It counts as binding. The method, then:
For the DNA binding studies, Calf-thymus DNA (CT-DNA) was purchased from Sigma Aldrich. The lyophilized CT-DNA was dissolved in 10 mM Tris-HCl, pH 7.9, mixed gently and left overnight at 4° C. The purity of the CT-DNA solution was determined by measuring the ratio of UV absorbance at 260 and 280 nm. […] Then, the concentration of CT-DNA was determined from the absorbance at 260 nm using an extinction coefficient of 6600 M^–1cm^–1. The tested TSC and DOX were dissolved in DMSO to a concentration of 8.35 mM, which was then used as the stock solution for preparing the various concentrations (25, 12.5, 6 and 3 µM) in 1 mL in 10 mM of Tris-HCl (pH 7.9). Afterwards, 18 µM CT-DNA was added to the prepared solutions, which were incubated for 1.5 h at 37° C with occasional vortexing. The absorption spectra were measured using a Hitachi U-2900 spectrophotometer in range of 200–500 nm. All absorption spectra were imported and compared in OriginPro 8.0.

In another test the test system is HCT116 cells. Kind of test: Time dependent measurement of ROS level. Conditions: 1 µM; 3, 6, 9, 12, 24 h. It counts as cell-based, human. The method, then: To determine the intracellular levels of ROS, HCT116 cells were seeded onto black 96-well plates (Corning) at a density of 9,000 cells/well and incubated at 37° C. After an overnight incubation, the solutions of the tested compounds: 1a-c, 2 a-b, 3 a-c, Dp44mT (1 μM) and DOX (5 μM) were added and incubated for 3, 6, 9, 12, and 24 h in a kinetic experiment. The generation of ROS was measured using a CellROX® Green Reagent (Molecular Probes™). Additionally, the quantity of cells in each well was determined using Hoechst 33342 (Molecular Probes™). The solutions of the tested compounds were removed and 100 µL of CellROX Green Reagent and Hoechst 33342 at a final concentration of 5 μM were added to each well. Then, the cells were incubated for 30 min at 37° C. The fluorescence was measured using a multi-plate reader (Synergy 4, Bio Tek) at 485 nm excitation and a 520 nm emission for CellROX Green Reagent and a 345 nm excitation laser and a 485 nm emission filter for Hoechst 33342. The experiments were performed three to four times. ROS levels were expressed as the percentage of the control cells level.

On to `S=C(NN=C(c1ccccn1)c1ccccn1)N1CCN(c2cnccn2)CC1` [Compound 3c], for which the “mRNA expression of MnSOD” value in the test on MnSOD is “large drop”. The IC50 in the test with HCT116 [1] (20 µM CuSO4 added, read-out: Activity - IC50 HCT116+ Cu^2+) was 4.95 ± 1.64 nM; in the test on HCT116 [1] (20 µM FeCl3 added, read-out: Activity - IC50 HCT116+ Fe^3+) it was 29.5 ± 3.69 nM; in the test on HCT116 [2], 37.8 ± 3.05 nM; with MCF-7 (96 h, 20 µM CuSO4 added, read-out: Activity - IC50 MCF-7+ Cu^2+), 4.41 ± 1.5 nM; in the test with MCF-7 (96 h, 20 µM FeCl3 added, read-out: Activity - IC50 MCF-7+ Fe^3+), 16.6 ± 2.25 nM; with MCF-7 (96 h incubation, MTS, read-out: Activity - IC50 MCF-7), 25.6 ± 6.74 nM. The IC50 with NHDF is 13.85 ± 0.03 nM. Besides, the “expression of cdc2 protein (densitometric analysis)” value in the test with cdc2 was “strongest decreasing effect”. For the same compound, in the test on Ndrg1, the “mRNA expression of Ndrg1” value was “strongest”. In the test on p21, the “expression of p21 protein (densitometric analysis)” value is listed as “marked up-regulation”. Besides, the “% hypochromism” value with calf-thymus DNA (CT-DNA) (bound to CT-DNA) is reported as 28.5%. Besides, the Changes in absorbance result with calf-thymus DNA (CT-DNA) (bound to CT-DNA) is recorded as “hypochromism”. This compound returned a Δε in the test on calf-thymus DNA (CT-DNA) (bound to CT-DNA) of 3220.0 M⁻¹ cm⁻¹. Also, the blue/red shift with calf-thymus DNA (CT-DNA) (wavelengths of maximum absorption, compound alone vs DNA-bound) came out at 2 nm. For the same compound, the “level of ROS, normalized to untreated cells” value with HCT116 cells is given as “only a minute increase”.
